Measured values as given in patent US20260137745A1, “QUERCETAGETIN ENRICHED MARIGOLD EXTRACTS, COMPOSITIONS, METHODS OF PREPARATION AND USE THEREOF” (AVT NATURAL PRODUCTS LTD., priority 2022, published 2026).
In brackets after ≈: the same amount, converted by molar mass. Where two headings read alike, the source gives them in different places.

Key:
[1] = Oxygen Radical Absorbance Capacity (ORAC) assay; format: biochemical; details: higher is better
Protocol: The Oxygen Radical Absorbance Capacity (ORAC) assay is a method that measures the antioxidant capacity of a substance. The ORAC assay measures a fluorescent signal from a probe that is quenched in the presence of Reactive Oxygen Species (ROS). […] In accordance with this protocol, ORAC assay was evaluated (using known protocols) for the composition comprising QG40 extract; the composition comprising QG90 extract and compared the same with composition comprising quercetin. […] Higher the ORAC value, means better performance by the composition.

DPPH Antioxidant Assay = format: biochemical; details: lower is better
Protocol: DPPH assay is considered a valid accurate and easy method to evaluate radical scavenging activity of antioxidants. DPPH [1,1-diphenyl-2-picryl hydrazyl] is a stable free radical with purple color. Antioxidants reduce DPPH to 1,1-diphenyl-2-picryl hydrazine, a color less compound which is measured at an absorbance of […]. This is an accepted mechanism for screening the antioxidant activity of plant extracts in a concentration dependent manner. Accordingly, the DPPH Antioxidant Assay was conducted as per known protocols for the compositions comprising QG40, and compositions comprising QG90, and Quercetin.

[2] = tested on: Keratinocyte (HACAT) cells; test: Cellular ROS Assay; format: cell-based; details: Homo sapiens, DCF-DA probe, flow cytometry, read-out: ROS inhibition IC50
Protocol: The Cellular ROS Assay is a cell-based assay designed for measuring Reactive Oxygen Species activity within a cell using the cell-permeable fluorogenic probe 2′. 7′-Di chloro dihydro fluorescein diacetate (DCF-DA). […] ROS induces the modification of carboxy-H2DCFDA that fluoresces green as detected by flow cytometry. ROS inhibition was evaluated for the composition with QG40 extract; the composition with QG90 extract and composition with quercetin.

[3] = tested on: Human Adult Epidermal Melanocytes (HAEM); test: Cellular melanin inhibition assay; format: cell-based; details: Melanocyte, read-out: melanin inhibition IC50
Protocol: Cellular melanin inhibition assay is a cell-based assay designed for measuring Melanin inhibition in Human Adult Epidermal Melanocytes (HAEM). Darkly pigmented melanocytes were treated with test samples and incubated for 72 hrs. Post incubation, melanin was extracted and measured at an absorbance of 490 nm to evaluate the non-cytotoxic concentration of test sample (i.e. composition with QG40 extract; the composition with QG90 extract and composition with quercetin) for melanin inhibition.

| IC50 ([3]; darkly pigmented melanocytes, 72 hrs incubation) [µg/mL] | Structure (SMILES) | ORAC value [1] [m1\4 TE/g] | DPPH Scavenging activity (IC50) (DPPH Antioxidant Assay) [µg/mL] | IC50 [2] [µg/mL] | IC50 ([3]; 72 h) [µg/mL] |
| --- | --- | --- | --- | --- | --- |
| – | O.O.O=c1c(O)c(-c2ccc(O)c(O)c2)oc2cc(O)cc(O)c12 [Composition having Quercetin, Quercetin dihydrate] | 18.69 | 6.27 | 16.5 | 9.62 |
| 25 (≈ 176 µM) | O=c1cc(CO)occ1O [Kojic acid] | – | – | – | – |
